Measurements from patent publication US20140031309A1, “Beta-L-N4 Hydroxycytosine Deoxynucleosides and their use as Pharmaceutical Agents in the Prophylaxis or Therapy of Viral Diseases” (MAX-DELBRUECK-CENTRUM FUER MOLEKULARE MEDIZIN, priority 2004, published 2014).
Where “and” joins values, the source holds several entries; their conditions need not be identical. Equal entries are not always repeated. Where two headings read alike, the source gives them in different places.

Key:
[1] = tested on: HBV; test: Inhibition of HBV-replication in HepG2 2.2.15 cells (extracellular HBV DNA, PCR); assay type: cell-based, hepatitis B virus; details: read-out: EC50, concentration required for 50% reduction of HBV DNA in the medium of the cells
Protocol: The antiviral efficacy of the compounds of the invention was investigated on HepG2 2.2.15 cells, a human hepatoblastoma cell line which has the replication-competent HBV genome stably integrated therein and produces infectious progeny viruses in a productive manner (Sells et al., Proc Natl Acad Sci USA 1987, 84: 1005-1009).
The above cells were cultured under standardized conditions as specified by Korba and Gerin, and the amount of extracellular viral DNA was determined (Korba et al., Antiviral Res 1992, 19: 55-70).
Following passaging, the HepG2 2.2.15 cells were seeded at a density of about 60% in 12-well plates and cultured to confluence in 10% FBS Dulbecco MEM. Thereafter, the medium was changed to 2% FBS, and the cells were cultured for another 24 hours.
After another change of medium, the cells were treated with varying concentrations of compounds according to the invention. Every 24 hours the compounds were re-added together with the medium. On the 6th day of treatment, the cell supernatants were centrifuged off and stored at −20° C. until analysis of the HBV DNA was effected.
Following treatment of the culture supernatants with proteinase K, the extracellular viral DNA was amplified by means of PCR using the following primers (forward: 5′-CTCCAGTTCAGGAACAGTAAACCC-3′(SEQ ID NO. 1); reverse: 5′-TTGTGAGCTCAGAAAGGCCTTGTAAGTTGGCG-3′(SEQ ID NO. 2). The PCR products were separated on 1% agarose, stained with ethidium bromide and quantified using a Fluor-S™ Multimager (Biorad).
For calibration of the PCR reaction, serial dilutions of the pUC19 HBV and pTHBV plasmids with known genome equivalents (GE) were used, resulting in a lower detection limit of about 10^3 GE and a linearity between 10^3 and 10^5 GE.

[2] = tested on: HL-60 cells; test: Cytotoxicity, inhibition of proliferation of HL-60 cells; assay type: cell-based, human; details: for CD50, concentration producing 50% inhibition of cell proliferation: two days incubation; for antiproliferative activity: in words
Protocol: (§1) To this end, established cells of a human myeloid leukemia (HL-60) in RPMI medium, and the above-mentioned HepG2 cells in Dulbecco MEM, respectively, were incubated for two days using varying concentrations of compounds, and the proliferation rate of the cells was subsequently determined. The data were used to determine the concentration of compounds resulting in 50% inhibition of proliferation (CD50).

[3] = tested on: HepG2-cells; test: Cytotoxicity, inhibition of proliferation of HepG2 cells; assay type: cell-based, human; details: for CD50, concentration producing 50% inhibition of cell proliferation: two days incubation; for antiproliferative activity: in words
Protocol: as §1

[4] = tested on: HIV; test: Inhibition of HIV replication; assay type: cell-based; details: read-out: EC50 against HIV replication
[5] = biological target: T1, HBV DNA polymerase (Hepatitis B virus genotype D subtype ayw, UniProt P03156); test: Inhibition of endogenous HBV DNA polymerase by nucleoside triphosphates; assay type: biochemical; details: virus particles from patient serum, 3H-dCTP, 1 h 37° C., read-out: IC50, 50% inhibition of the HBV DNA polymerase activity
T1 construct: the endogenous HBV DNA polymerase activity; from tissue; host or cells: serum of patients with untreated hepatitis B virus infection; virus particles purified by ultracentrifugation and lysed
Protocol: To determine the endogenous HBV DNA polymerase activity, about 100 ml of serum from patients with untreated hepatitis B virus infections from Charité, Berlin, (>10^7 HBV particles/ml), was centrifuged at 3000 rpm. Virus particles of the cleared serum were sedimented in a Beckman SW28 rotor at 25,000 rpm, 60 min. The virus pellet was suspended in 7 ml of TKM buffer (50 mM Tris-HCl, pH 7.5, 50 mM KCl, 5 mM MgCl2), layered over a step gradient of 10 ml each of 0.3 M, 0.6 M, 0.9 M saccharose in TKM buffer and centrifuged at 25,000 rpm for 20 hours.
The purified virus pellet was suspended in 250 μl TKM buffer, lysed by ultrasound, divided in aliquots and frozen at −80° C. (Davies et al., Antiviral Res 1996, 30: 133-145).
The HBV DNA polymerase assay contained in 30 μl about 2-4×10^8 purified virus particles (lysed beforehand additionally in 6% β-mercaptoethanol, 10% Igepal for 15 min at room temperature), 42 mM Tris-HCl, (pH 7.5), 34 mM MgCl2, 340 mM KCl, 22 mM β-mer-captoethanol, 0.4% Igepal, 70 μM TTP, dATP, dGTP and 1 μCi ^3HdCTP (=0.7 μM dCTP) (Matthes et al., Antimicrob Agents & Chemother 1991, 35: 1254-1257) and varying concentrations of β-L-N4-hydroxycytosine nucleoside triphosphates as inhibitors.
Following a one-hour incubation at 37° C., 20 μl of the assay volume was placed on paper filter, washed 5 times with 5% trichloroacetic acid and 0.1% Na pyrophosphate, and the ^3H-dCMP incorporated in the HBV DNA was subsequently measured in a Liquid Scintillation Counter.
Using the concentration-dependent inhibition curves of HBV DNA synthesis, the concentration of β-L-N4-hydroxycytosine nucleoside triphosphates resulting in 50% inhibition of the HBV DNA polymerase activity was determined.

[6] = tested on: HBV; details: treatment of HBV infections; cited from earlier work
[7] = HepG2 2.2.15 cells, 6 days incubation, extracellular HBV DNA

T1 sequence (P03156 whole entry): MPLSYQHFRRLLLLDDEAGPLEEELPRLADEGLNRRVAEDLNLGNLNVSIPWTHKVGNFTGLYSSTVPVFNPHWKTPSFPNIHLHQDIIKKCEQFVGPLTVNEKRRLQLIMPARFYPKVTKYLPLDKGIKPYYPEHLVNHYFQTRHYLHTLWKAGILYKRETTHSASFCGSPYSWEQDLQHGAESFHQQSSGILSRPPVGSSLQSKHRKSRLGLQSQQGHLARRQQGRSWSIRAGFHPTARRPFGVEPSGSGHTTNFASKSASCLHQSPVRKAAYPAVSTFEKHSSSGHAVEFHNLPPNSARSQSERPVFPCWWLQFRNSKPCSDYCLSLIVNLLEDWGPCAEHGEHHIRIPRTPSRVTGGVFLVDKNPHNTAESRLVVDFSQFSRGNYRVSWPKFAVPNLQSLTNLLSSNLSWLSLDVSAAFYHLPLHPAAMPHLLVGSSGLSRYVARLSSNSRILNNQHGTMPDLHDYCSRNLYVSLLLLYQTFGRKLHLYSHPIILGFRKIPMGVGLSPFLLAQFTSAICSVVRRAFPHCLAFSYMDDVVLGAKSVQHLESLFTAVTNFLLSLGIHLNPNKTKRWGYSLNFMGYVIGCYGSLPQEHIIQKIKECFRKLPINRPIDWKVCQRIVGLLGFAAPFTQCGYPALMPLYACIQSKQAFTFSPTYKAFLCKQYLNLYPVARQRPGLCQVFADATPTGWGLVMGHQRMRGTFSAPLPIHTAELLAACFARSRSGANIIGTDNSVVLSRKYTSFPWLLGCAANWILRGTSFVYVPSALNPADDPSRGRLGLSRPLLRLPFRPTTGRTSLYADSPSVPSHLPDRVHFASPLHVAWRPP

Row | Compound | CD50, concentration producing 50% inhibition of cell proliferation [2] [µM] | CD50, concentration producing 50% inhibition of cell proliferation [3] [µM] | EC50 [1, 7] [µM] | further results
1 | Nc1ccn([C@@H]2CS[C@H](CO)O2)c(=O)n1 [3TC (lamivudine), β-L-2′,3′-dideoxy-3′-thiacytidine, reference compound] | 2000 | 1900 | – | EC50 ([1]; Hepatitis B virus, HepG2 2.2.15, 144 h): 0.1 µM
2 | O=c1nc(NO)ccn1[C@H]1CS[C@@H](CO)O1 [Hy3TC, β-L-2′,3′-dideoxy-3′-thia-N4-hydroxycytidine] | 1450 | 1230 | 0.5 | EC50 [4]: > 25 µM
3 | O=c1nc(NO)c(F)cn1[C@H]1CS[C@@H](CO)O1 [HyFTC, β-L-2′,3′-dideoxy-3′-thia-5-fluoro-N4-hydroxycytidine] | 1100 | 975 | 0.3 | –
4 | Nc1nc(=O)n([C@@H]2C[C@@H](O)[C@H](CO)O2)cc1F [L-FCdR, β-L-5-fluorodeoxycytidine, reference compound] | – | – | 1.2 | –
5 | O=c1nc(NO)ccn1[C@@H]1C[C@@H](F)[C@H](CO)O1 [L-FHyCdR, β-L-3′-fluoro-2′,3′-dideoxy-N4-hydroxycytidine] | 4400 | 820 | – | –
6 | O=c1nc(NO)ccn1[C@@H]1C[C@@H](O)[C@H](CO)O1 [L-HyCdR, β-L-N4-hydroxydeoxycytidine] | 460 | 545 | 3 | –
7 | O=c1nc(NO)c(F)cn1[C@@H]1C[C@@H](O)[C@H](CO)O1 [L-HyFCdR, β-L-5-fluoro-N4-hydroxydeoxycytidine] | 1370 | 920 | 4.5 | –
8 | O=c1nc(NO)ccn1[C@H]1O[C@@H](CO)C=C1F [L-HyFddeC, β-L-2′,3′-didehydro-2′,3′-dideoxy-2′-fluoro-N4-hydroxycytidine] | 1130 | 1370 | < 0.1 | antiproliferative activity [2]: lost the antiproliferative activity; antiproliferative activity [3]: lost the antiproliferative activity
9 | Cc1cn([C@@H]2C[C@@H](O)[C@H](CO)O2)c(=O)nc1NO [L-HyMetCdR, β-L-5-methyl-N4-hydroxydeoxycytidine] | 600 | 490 | – | –
10 | O=c1nc(NO)ccn1[C@@H]1CC[C@H](CO)O1 [L-HyddC, β-L-2′,3′-dideoxy-N4-hydroxycytidine] | 1600 | 2250 | – | antiproliferative activity [2]: lost the antiproliferative activity; antiproliferative activity [3]: lost the antiproliferative activity
11 | O=c1nc(NO)c(F)cn1[C@@H]1CC[C@H](CO)O1 [L-HyddFC, β-L-2′,3′-dideoxy-5-fluoro-N4-hydroxycytidine] | 1860 | 1580 | 0.35 | –
12 | O=c1nc(NO)ccn1[C@@H]1C=C[C@H](CO)O1 [L-HyddeC, β-L-2′,3′-didehydro-2′,3′-dideoxy-N4-hydroxycytidine] | >3500 | >5000 | 0.05 | –
13 | O=c1nc(NO)c(F)cn1[C@@H]1C=C[C@H](CO)O1 [L-HyddeFC, β-L-2′,3′-didehydro-2′,3′-dideoxy-5-fluoro-N4-hydroxycytidine] | – | – | < 0.1 | antiproliferative activity [2]: lost the antiproliferative activity; antiproliferative activity [3]: lost the antiproliferative activity
14 | [N-]=[N+]=N[C@@H]1C[C@@H](n2ccc(NO)nc2=O)O[C@H]1CO [L-N3HyCdR, β-L-3′-azido-2′,3′-dideoxy-N4-hydroxycytidine] | 2000 | 1160 | – | –
15 | Cc1cn([C@@H]2C[C@@H](O)[C@H](CO)O2)c(=O)[nH]c1=O [L-TdR, β-L-thymidine, reference compound] | – | – | – | EC50 ([1]; Hepatitis B virus, 144 h, HepG2 2.2.15 cells, 6 days incubation, extracellular HBV DNA): 0.3 µM
16 | Nc1ccn([C@@H]2CC[C@H](CO)O2)c(=O)n1 [L-ddC, β-L-2′,3′-dideoxycytidine, reference compound] | – | – | 0.25 | –
17 | O=c1nc(NO)ccn1[C@@H]1CS[C@H](COP(=O)(O)OP(=O)(O)OP(=O)(O)O)O1 [Triphosphate of L-Hy3TC] | – | – | – | IC50 [5]: 0.15 to 0.65 µM and 0.65 µM
18 | O=c1nc(NO)ccn1[C@@H]1C[C@@H](O)[C@H](COP(=O)(O)OP(=O)(O)OP(=O)(O)O)O1 [Triphosphate of L-HyCdR] | – | – | – | IC50 [5]: 6 µM
19 | Cc1cn([C@@H]2C[C@@H](O)[C@H](COP(=O)(O)OP(=O)(O)OP(=O)(O)O)O2)c(=O)nc1NO [Triphosphate of L-HyMetCdR] | – | – | – | IC50 [5]: 4 µM
20 | O=c1nc(NO)ccn1[C@@H]1CC[C@H](COP(=O)(O)OP(=O)(O)OP(=O)(O)O)O1 [Triphosphate of L-HyddC] | – | – | – | IC50 [5]: 0.15 to 0.65 µM and 0.55 µM
21 | O=c1nc(NO)ccn1[C@@H]1C=C[C@H](COP(=O)(O)OP(=O)(O)OP(=O)(O)O)O1 [Triphosphate of L-HyddeC] | – | – | – | IC50 [5]: 0.15 to 0.65 µM and 0.28 µM
22 | α-interferon | – | – | – | share of the patients in whom it is effective [6]: about 33%
